The values below come from patent publication US12600709B2, “Nonpeptide somatostatin type 5 receptor agonists and uses thereof” (Crinetics Pharmaceuticals, Inc., priority 2019, dated 2026).

pEC50: −log10 of the molar value. Where two headings read alike, the source gives them in different places. Some results are limits rather than exact numbers.

Experiment [1] addresses T1, human somatostatin receptor subtype 2 (Homo sapiens, UniProt P30874).
T1 construct: expressed in transfected cells
Nature of the experiment: cAMP assay for SST2R (inhibition of cAMP in CHO-K1 cells). It counts as cell-based. The following applies: Table B; inhibition of cAMP via human SST2 receptor; read-out: SST2 potency. In short, it runs like this: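 Agonism read as decrease in NKH477 (1.6 μM)-stimulated cAMP: compounds applied 20 min, 37° C, with 0.2 mM IBMX, to CHO-K1 stably expressing human SSTR2. cAMP quantified in lysates by time-resolved fluorescence (HTRF kit, 1-24 h RT), standard-curve regression, then EC50.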

The target in experiment [2] is T2, human somatostatin receptor subtype 5 (Homo sapiens, UniProt P35346).
T2 construct: expressed in transfected cells
T2 sequence (P35346 whole entry): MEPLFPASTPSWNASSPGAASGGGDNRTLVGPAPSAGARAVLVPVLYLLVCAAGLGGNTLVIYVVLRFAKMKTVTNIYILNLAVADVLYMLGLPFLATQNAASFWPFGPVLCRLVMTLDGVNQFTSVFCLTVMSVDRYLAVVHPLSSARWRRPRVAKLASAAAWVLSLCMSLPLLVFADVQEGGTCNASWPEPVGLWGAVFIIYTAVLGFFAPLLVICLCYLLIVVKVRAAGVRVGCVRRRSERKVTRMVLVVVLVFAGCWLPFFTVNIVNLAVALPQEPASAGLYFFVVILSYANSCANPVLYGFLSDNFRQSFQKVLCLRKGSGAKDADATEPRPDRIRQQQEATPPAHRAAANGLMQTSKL
Kind of experiment: cAMP assay for SST5R (inhibition of cAMP in CHO-K1 cells). It counts as cell-based. Conditions: for pEC50: inhibition of cAMP via human SST5 receptor, read-out: SST5 potency; for Fold selectivity for SST5 vs SST2: class symbols, SST5 receptor over SST2 receptor. In short, it runs like this: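 CHO-K1 cells stably expressing human SSTR5 were treated 20 min at 37 °C with compounds plus 1.6 μM NKH477 in HBSS, 0.5 mM HEPES pH 7.4, 0.1% BSA, 0.2 mM IBMX. Lysate cAMP measured by HTRF against a standard curve; EC50 from cAMP-versus-concentration plots.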

T1 sequence (P30874 whole entry): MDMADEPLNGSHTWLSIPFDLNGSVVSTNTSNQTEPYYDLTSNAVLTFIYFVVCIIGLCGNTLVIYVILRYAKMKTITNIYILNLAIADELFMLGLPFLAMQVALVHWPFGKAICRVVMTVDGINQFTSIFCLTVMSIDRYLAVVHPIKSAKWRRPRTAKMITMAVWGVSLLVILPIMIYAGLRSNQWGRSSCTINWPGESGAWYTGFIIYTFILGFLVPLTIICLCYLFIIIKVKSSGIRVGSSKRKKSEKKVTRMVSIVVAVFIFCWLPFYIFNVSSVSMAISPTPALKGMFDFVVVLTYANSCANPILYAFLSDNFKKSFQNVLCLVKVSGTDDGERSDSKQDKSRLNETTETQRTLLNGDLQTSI

Turning to `C[C@H](NC(=O)c1cnc(C#N)c(-c2cc(F)cc(F)c2)c1N1CC[C@](C)(N)C1)c1ccccn1` [1-103, 4-[(3S)-3-amino-3-methylpyrrolidin-1-yl]-6-cyano-5-(3,5-difluorophenyl)-N-[(1S)-1-(pyridin-2-yl)ethyl]pyridine-3-carboxamide], the pEC50 is under 6.00 in experiment [1], over 8.00 in experiment [2] (Table A) and over 8.00 in experiment [2] (Table B). In addition, the “Fold selectivity for SST5 vs SST2” value in experiment [2] (Table B) is “+++ (+++=>500)”.

Turning to `Cn1nccc1CNC(=O)c1cnc(C#N)c(-c2cc(F)cc(F)c2)c1N1CC[C@](C)(N)C1` [1-104, 4-[(3S)-3-amino-3-methylpyrrolidin-1-yl]-6-cyano-5-(3,5-difluorophenyl)-N-[(1-methyl-1H-pyrazol-5-yl)methyl]pyridine-3-carboxamide], the pEC50 in experiment [1] was under 6.00; in experiment [2] (Table A) it was over 8.00; in experiment [2] (Table B), over 8.00. Besides, the “Fold selectivity for SST5 vs SST2” value in experiment [2] (Table B) is reported as “+++ (+++=>500)”.

In the case of `C[C@]1(N)CCN(c2c(C(=O)NCc3ncccn3)cnc(C#N)c2-c2cc(F)cc(F)c2)C1` [1-108, 4-[(3S)-3-amino-3-methylpyrrolidin-1-yl]-6-cyano-5-(3,5-difluorophenyl)-N-[(pyrimidin-2-yl)methyl]pyridine-3-carboxamide], the pEC50 was under 6.00 in experiment [1], over 8.00 in experiment [2] (Table A) and over 8.00 in experiment [2] (Table B). The “Fold selectivity for SST5 vs SST2” value in experiment [2] (Table B) was “+++ (+++=>500)”.

For `N#Cc1ncc(C(=O)NCCCc2ccccc2)c(N2CC[C@H](N)C2)c1-c1cc(F)cc(F)c1` [1-110, 4-[(3S)-3-aminopyrrolidin-1-yl]-6-cyano-5-(3,5-difluorophenyl)-N-(3-phenylpropyl)pyridine-3-carboxamide], the pEC50 was under 6.00 in experiment [1], over 8.00 in experiment [2] (Table A) and over 8.00 in experiment [2] (Table B). For the same molecule, in experiment [2] (Table B), the “Fold selectivity for SST5 vs SST2” value is given as “+++ (+++=>500)”.

Take `C[C@]1(N)CCN(c2c(C(=O)NC3CCCCC3)cncc2-c2cc(F)cc(F)c2)C1` [1-112, 4-[(3S)-3-amino-3-methylpyrrolidin-1-yl]-N-cyclohexyl-5-(3,5-difluorophenyl)pyridine-3-carboxamide]: the pEC50 was 6.00 to 7.00 in experiment [1], over 8.00 in experiment [2] (Table A) and over 8.00 in experiment [2] (Table B). Also, in experiment [2] (Table B), the “Fold selectivity for SST5 vs SST2” value is on record as “+++ (+++=>500)”.

Turning to `CC1(C)CC(NC(=O)c2cnc(C#N)c(-c3cc(F)cc(F)c3)c2N2CC[C@](C)(N)C2)CCO1` (stereo partly drawn) [1-113, 4-[(3S)-3-amino-3-methylpyrrolidin-1-yl]-6-cyano-5-(3,5-difluorophenyl)-N-(2,2-dimethyloxan-4-yl)pyridine-3-carboxamide], the pEC50 is under 6.00 in experiment [1], over 8.00 in experiment [2] (Table A) and over 8.00 in experiment [2] (Table B). In addition, the “Fold selectivity for SST5 vs SST2” value in experiment [2] (Table B) is on record as “+++ (+++=>500)”.

Take `C[C@]1(N)CCN(c2c(C(=O)NCc3ccon3)cnc(C#N)c2-c2cc(F)cc(F)c2)C1` [1-114, 4-[(3S)-3-amino-3-methylpyrrolidin-1-yl]-6-cyano-5-(3,5-difluorophenyl)-N-[(1,2-oxazol-3-yl)methyl]pyridine-3-carboxamide]: the pEC50 in experiment [1] was under 6.00; in experiment [2] (Table A), over 8.00; in experiment [2] (Table B), over 8.00. Besides, the “Fold selectivity for SST5 vs SST2” value in experiment [2] (Table B) was “+++ (+++=>500)”.

Take `C[C@]1(N)CCN(c2c(C(=O)NCc3ccccc3O)cnc(C#N)c2-c2cc(F)cc(F)c2)C1` [1-115, 4-[(3S)-3-amino-3-methylpyrrolidin-1-yl]-6-cyano-5-(3,5-difluorophenyl)-N-[(2-hydroxyphenyl)methyl]pyridine-3-carboxamide]: the figures for the pEC50 in experiment [1], in experiment [2] (Table A) and in experiment [2] (Table B) were under 6.00, over 8.00 and over 8.00, respectively. In experiment [2] (Table B), the “Fold selectivity for SST5 vs SST2” value is “+++ (+++=>500)”.

Consider `COC[C@@]1(N)CCN(c2c(C(=O)N[C@@H](C)C3CC3)cnc(C#N)c2-c2cc(F)cc(F)c2)C1` [1-116, 4-[(3R)-3-amino-3-(methoxymethyl)pyrrolidin-1-yl]-6-cyano-N-[(1S)-1-cyclopropylethyl]-5-(3,5-difluorophenyl)pyridine-3-carboxamide], for which the pEC50 was under 6.00 in experiment [1], over 8.00 in experiment [2] (Table A) and over 8.00 in experiment [2] (Table B). Further, the “Fold selectivity for SST5 vs SST2” value in experiment [2] (Table B) is recorded as “+++ (+++=>500)”.

Turning to `C[C@H](NC(=O)c1cnc(C#N)c(-c2cc(F)cc(F)c2)c1N1CC[C@](N)(CC(F)F)C1)C1CC1` [1-118, 4-[(3S)-3-amino-3-(2,2-difluoroethyl)pyrrolidin-1-yl]-6-cyano-N-[(1S)-1-cyclopropylethyl]-5-(3,5-difluorophenyl)pyridine-3-carboxamide], the figures for the pEC50 in experiment [1], in experiment [2] (Table A) and in experiment [2] (Table B) were under 6.00, over 8.00 and over 8.00, respectively. The “Fold selectivity for SST5 vs SST2” value in experiment [2] (Table B) is given as “+++ (+++=>500)”.

In the case of `C[C@H](NC(=O)c1cnc(C#N)c(-c2cccc(OC(F)F)c2)c1N1CC[C@](C)(N)C1)C1CC1` [1-120, 4-[(3S)-3-amino-3-methylpyrrolidin-1-yl]-6-cyano-N-[(1S)-1-cyclopropylethyl]-5-[3-(difluoromethoxy)phenyl]pyridine-3-carboxamide], the figures for the pEC50 in experiment [1], in experiment [2] (Table A) and in experiment [2] (Table B) were 7.00 to 8.00, over 8.00 and over 8.00, respectively. Further, the “Fold selectivity for SST5 vs SST2” value in experiment [2] (Table B) is “+++ (+++=>500)”.

`C[C@H](NC(=O)c1cnc(C#N)c(-c2ccn(C)n2)c1N1CC[C@](C)(N)C1)C1CC1` [1-121, 4-[(3S)-3-amino-3-methylpyrrolidin-1-yl]-6-cyano-N-[(1S)-1-cyclopropylethyl]-5-(1-methyl-1H-pyrazol-3-yl)pyridine-3-carboxamide]: the pEC50 in experiment [1] was under 6.00; in experiment [2] (Table A), over 8.00; in experiment [2] (Table B), over 8.00. In experiment [2] (Table B), the “Fold selectivity for SST5 vs SST2” value was “+++ (+++=>500)”.

Turning to `Cc1ncc(C(=O)N[C@@H](C)C2CC2)c(N2CC[C@](C)(N)C2)c1-c1cc(F)cc(F)c1` [1-122, 4-[(3S)-3-amino-3-methylpyrrolidin-1-yl]-N-[(1S)-1-cyclopropylethyl]-5-(3,5-difluorophenyl)-6-methylpyridine-3-carboxamide], the pEC50 was 6.00 to 7.00 in experiment [1], over 8.00 in experiment [2] (Table A) and over 8.00 in experiment [2] (Table B). Also, the “Fold selectivity for SST5 vs SST2” value in experiment [2] (Table B) is “+++ (+++=>500)”.

`Cc1ncc(C(=O)N[C@@H](C)C2CC2)c(N2CC[C@](C)(N)C2)c1-c1cc(F)cc(C#N)c1` [1-123, 4-[(3S)-3-amino-3-methylpyrrolidin-1-yl]-5-(3-cyano-5-fluorophenyl)-N-[(1S)-1-cyclopropylethyl]-6-methylpyridine-3-carboxamide]: the pEC50 was 6.00 to 7.00 in experiment [1], over 8.00 in experiment [2] (Table A) and over 8.00 in experiment [2] (Table B). Moreover, the “Fold selectivity for SST5 vs SST2” value in experiment [2] (Table B) is listed as “+++ (+++=>500)”.

On to `Cc1ncc(C(=O)N[C@@H](C)C2CC2)c(N2CC[C@](C)(N)C2)c1-c1cccc(F)c1` [1-124, 4-[(3S)-3-amino-3-methylpyrrolidin-1-yl]-N-[(1S)-1-cyclopropylethyl]-5-(3-fluorophenyl)-6-methylpyridine-3-carboxamide], for which the pEC50 in experiment [1] is 6.00 to 7.00; in experiment [2] (Table A), over 8.00; in experiment [2] (Table B) it was over 8.00. Further, in experiment [2] (Table B), the “Fold selectivity for SST5 vs SST2” value is given as “+++ (+++=>500)”.

With `Cc1ncc(C(=O)N[C@@H](C)C2CC2)c(N2CC[C@](C)(N)C2)c1-c1cc(F)cc(Cl)c1` [1-125, 4-[(3S)-3-amino-3-methylpyrrolidin-1-yl]-5-(3-chloro-5-fluorophenyl)-N-[(1S)-1-cyclopropylethyl]-6-methylpyridine-3-carboxamide], the values for the pEC50 in experiment [1], in experiment [2] (Table A) and in experiment [2] (Table B) were 7.00 to 8.00, over 8.00 and over 8.00, respectively. For the same molecule, the “Fold selectivity for SST5 vs SST2” value in experiment [2] (Table B) is reported as “+++ (+++=>500)”.

As for `CC(NC(=O)c1cnc(C#N)c(-c2cc(F)cc(F)c2)c1N1CC[C@](C)(N)C1)c1ncccn1` (stereo partly drawn) [1-126, 4-[(3S)-3-amino-3-methylpyrrolidin-1-yl]-6-cyano-5-(3,5-difluorophenyl)-N-[1-(pyrimidin-2-yl)ethyl]pyridine-3-carboxamide], the pEC50 in experiment [1] is under 6.00; in experiment [2] (Table A), over 8.00; in experiment [2] (Table B), over 8.00. Moreover, the “Fold selectivity for SST5 vs SST2” value in experiment [2] (Table B) is “+++ (+++=>500)”.

Turning to `C[C@H](NC(=O)c1cnc(C#N)c(-c2cccc(OC(F)(F)F)c2)c1N1CC[C@](C)(N)C1)C1CC1` [1-127, 4-[(3S)-3-amino-3-methylpyrrolidin-1-yl]-6-cyano-N-[(1S)-1-cyclopropylethyl]-5-[3-(trifluoromethoxy)phenyl]pyridine-3-carboxamide], the pEC50 in experiment [1] is 6.00 to 7.00; in experiment [2] (Table A), over 8.00; in experiment [2] (Table B), over 8.00. For the same molecule, in experiment [2] (Table B), the “Fold selectivity for SST5 vs SST2” value was “+++ (+++=>500)”.

As to `Cc1ncc(-c2c(C#N)ncc(C(=O)N[C@@H](C)C3CC3)c2N2CC[C@](C)(N)C2)s1` [1-128, 4-[(3S)-3-amino-3-methylpyrrolidin-1-yl]-6-cyano-N-[(1S)-1-cyclopropylethyl]-5-(2-methyl-1,3-thiazol-5-yl)pyridine-3-carboxamide], the pEC50 was 6.00 to 7.00 in experiment [1], over 8.00 in experiment [2] (Table A) and over 8.00 in experiment [2] (Table B). Moreover, in experiment [2] (Table B), the “Fold selectivity for SST5 vs SST2” value was “+++ (+++=>500)”.

As for `C[C@H](NC(=O)c1cnc(C#N)c(-c2ccnc(C(F)(F)F)c2)c1N1CC[C@](C)(N)C1)C1CC1` [1-129, 4-[(3S)-3-amino-3-methylpyrrolidin-1-yl]-2-cyano-N-[(1S)-1-cyclopropylethyl]-2′-(trifluoromethyl)-[3,4′-bipyridine]-5-carboxamide], the pEC50 in experiment [1] was 6.00 to 7.00; in experiment [2] (Table A), over 8.00; in experiment [2] (Table B), over 8.00. Also, the “Fold selectivity for SST5 vs SST2” value in experiment [2] (Table B) is recorded as “+++ (+++=>500)”.
